From the supplement of paper PMC9663587

Tests used:
Experiment in all cases: area over the GR curve, 72 h; higher = more effect;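 note: Dye Drop or Deep Dye Drop imaging of viable cells in 384-well plates (Hoechst nuclei, LIVE/DEAD dye), nine half-log doses, GR normalized to DMSO controls and time-zero plates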
184A1 = test system: 184A1
BT20 = test system: BT20
CAMA1 = test system: CAMA1
EFM19 = test system: EFM19
HCC1806 = test system: HCC1806
HCC38 = test system: HCC38
HCC70 = test system: HCC70
MDAMB175VII = test system: MDAMB175VII
MDAMB231 = test system: MDAMB231
MDAMB330 = test system: MDAMB330
MDAMB453 = test system: MDAMB453
MGH312 = test system: MGH312
UACC812 = test system: UACC812

Row | SMILES | area over the GR curve (184A1) | area over the GR curve (BT20) | area over the GR curve (CAMA1) | area over the GR curve (EFM19) | area over the GR curve (HCC1806) | area over the GR curve (HCC38) | area over the GR curve (HCC70) | area over the GR curve (MDAMB175VII) | area over the GR curve (MDAMB231) | area over the GR curve (MDAMB330) | area over the GR curve (MDAMB453) | area over the GR curve (MGH312) | area over the GR curve (UACC812)
1 | CC1(N)CCN(c2cnc(-c3cccc(Cl)c3Cl)c(N)n2)CC1 [SHP099] (max 10 µM) | 0.118 GR | 0.0072 GR | 0.0525 GR | -0.0009 GR | -0.0155 GR | 0.172 GR | 0.074 GR | 0.238 GR | -0.0083 GR | 0.121 GR | 0.0286 GR | -0.0302 GR | 0.151 GR
2 | CN1CCN(CCOc2cc(OC3CCOCC3)c3c(Nc4c(Cl)ccc5c4OCO5)ncnc3c2)CC1 [Saracatinib/AZD0530] (max 10 µM) | 0.0722 GR | 0.159 GR | 0.0262 GR | 0.149 GR | 0.233 GR | 0.101 GR | 0.573 GR | 0.762 GR | 0.269 GR | 0.303 GR | 0.0491 GR | 0.537 GR | 0.875 GR
3 | Cc1cc(C(C)Nc2ccccc2)c2nc(N3CCOCC3)cc(=O)n2c1 (centres undefined) [TGX221] (max 10 µM) | 0.0024 GR | -0.0612 GR | 0.0019 GR | 0.0431 GR | -0.02 GR | -0.0299 GR | 0.467 GR | -0.0733 GR | 0.0141 GR | -0.0042 GR | -0.0643 GR | 0.472 GR | 0.523 GR
4 | CN(C)C/C=C/C(=O)Nc1ccc(C(=O)Nc2cccc(Nc3ncc(Cl)c(-c4c[nH]c5ccccc45)n3)c2)cc1 [THZ1] (max 1 µM) | 0.528 GR | 0.108 GR | 0.459 GR | 0.159 GR | 0.367 GR | 0.525 GR | 0.762 GR | 0.487 GR | 0.356 GR | 0.86 GR | 0.553 GR | 0.97 GR | 0.0711 GR
5 | CN(C)C/C=C/C(=O)Nc1ccc(C(=O)N2CCC[C@@H](Nc3ncc(Cl)c(-c4c[nH]c5ccccc45)n3)C2)cc1 [THZ531] (max 1 µM) | 0.214 GR | 0.0416 GR | 0.241 GR | 0.167 GR | 0.134 GR | 0.223 GR | 0.462 GR | 0.567 GR | 0.205 GR | 0.747 GR | 0.537 GR | 0.636 GR | 0.0619 GR
6 | CN(C)C/C=C/C(=O)Nc1ccc(C(=O)Nc2cccc(Nc3cc(-c4c[nH]c5ccccc45)ncn3)c2)cc1 [THZ-P1-2] (max 10 µM) | 0.351 GR | 0.137 GR | 0.309 GR | 0.131 GR | 0.199 GR | 0.181 GR | 0.326 GR | 0.458 GR | 0.163 GR | 0.592 GR | 0.533 GR | 0.127 GR | 0.0711 GR
7 | Cc1nc(-c2cn3c(n2)-c2ccc(-c4cnn(C(C)(C)C(N)=O)c4)cc2OCC3)n(C(C)C)n1 [Taselisib/GDC0032] (max 10 µM) | 0.457 GR | 0.736 GR | 0.245 GR | 0.944 GR | 0.258 GR | 0.202 GR | 0.548 GR | 1.32 GR | 0.254 GR | 1.15 GR | 1.01 GR | 0.886 GR | 0.693 GR
8 | O=C1NC(=O)[C@@H](c2cn3c4c(cccc24)CCC3)[C@@H]1c1c[nH]c2ccccc12 [Tivantinib/ARQ197] (max 10 µM) | 0.582 GR | 0.416 GR | 0.526 GR | 0.361 GR | 0.446 GR | 0.436 GR | 0.474 GR | 0.531 GR | 0.323 GR | 0.368 GR | 0.404 GR | 0.396 GR | 0.667 GR
9 | Nc1ccc(-c2ccc3ncc4ccc(=O)n(-c5cccc(C(F)(F)F)c5)c4c3c2)cn1 [Torin2] (max 1 µM) | 0.46 GR | 0.536 GR | 0.507 GR | 0.501 GR | 0.388 GR | 0.538 GR | 0.645 GR | 1.04 GR | 0.386 GR | 0.879 GR | 0.679 GR | 0.816 GR | 0.9 GR
10 | CC[C@@H]1C(=O)N(C)c2cnc(Nc3ccc(C(=O)N[C@H]4CC[C@H](N5CCN(CC6CC6)CC5)CC4)cc3OC)nc2N1C(C)C [Volasertib/BI6727] (max 1 µM) | 0.54 GR | 0.79 GR | 0.674 GR | 0.741 GR | 0.726 GR | 0.59 GR | 0.579 GR | 0.449 GR | 0.584 GR | 0.778 GR | 0.488 GR | 0.801 GR | 0.734 GR
11 | O=C(CCCCCCC(=O)Nc1ccccc1)NO [Vorinostat] (max 10 µM) | 0.188 GR | 0.151 GR | 0.383 GR | 0.162 GR | 0.24 GR | 0.284 GR | 0.38 GR | 0.445 GR | 0.282 GR | 0.271 GR | 0.263 GR | 0.37 GR | 0.393 GR
12 | C=CC(=O)Nc1ccc(C(=O)Nc2[nH]nc3c2CN(C(=O)N[C@H](CN(C)C)c2ccccc2)C3(C)C)cc1 [YKL-5-124] (max 10 µM) | 0.929 GR | 0.693 GR | 0.968 GR | 0.8 GR | 1.01 GR | 0.928 GR | 1.46 GR | 0.989 GR | 0.878 GR | 0.925 GR | 0.834 GR | 0.923 GR | 1.02 GR
13 | CN1CCN(C(=O)c2ccc3cc(CCNc4ncnc5ccc(C#N)cc45)ccc3c2)CC1 [senexin b] (max 10 µM) | 0.107 GR | 0.275 GR | 0.351 GR | 0.219 GR | 0.0969 GR | 0.152 GR | 0.209 GR | 0.427 GR | 0.0788 GR | 0.146 GR | 0.193 GR | 0.418 GR | 0.421 GR
